Test results taken from patent US20230286930A1, “N -SUBSTITUTED 4-(1,3-ARYLOXAZOLO-2-YL)PHENYL COMPOUNDS FOR THE TREATMENT AND PROPHYLAXIS OF HEPATITIS B VIRUS INFECTION” (Hoffmann-La Roche Inc., priority 2020, published 2023).

Key:
HBsAg = experiment: PHH natural infection assay, HBsAg (alphalisa); assay type: cell-based, HBV; settings: Hepatitis B virus, read-out: HBsAg IC50
Procedure: (§1) Detailed procedures regarding primary human hepatocyte (PHH) HBV natural infection assay are described as below. One tube of frozen PHH (10 million cells) is thawed in 37° C. water bath and then transferred to 20 mL of PHH thawing medium (Sigma, InVitroGRO HT Medium, Cat. S03319) with gently mixing. The cells were then centrifuged at […] for 5 min, the supernatant was discarded and the tube was refilled with 25 mL of PHH plating medium (Sigma, InVitroGRO CP Medium, Cat. S03317). The tube was shaken very gently to re-suspend all cells, and then 50 μL of cells were transferred to each well 384-well collagen I coated plate with appropriate liquid handling equipment, e.g. Integra VIAFLO384 or Agilent Bravo. The cells were then cultured for 24 hours in a cell incubator. For HBV infection, after PHH attachment on the culture plate, the plating medium was removed and replenished with PHH culture medium containing HBV virus. The PHH culture medium was prepared with Dulbecco's Modified Eagle Medium (DMEM)/F12 (1:1 in volume ratio) containing 10% fetal bovine serum (Gibco, Cat. 10099141), 5 ng/mL human epidermal growth factor (Gibco, Cat.PHG0311L), 20 ng/mL dexamethasone (Sigma, Cat.D4902-100 mg), 250 ng/mL human recombinant insulin (Gibco, Cat.41400045) and 100 U/mL penicillin. HBV virus at 200 genome equivalent (GE) per cell with 4% PEG8000 (Sigma, Cat.P1458) containing culture medium were added to the PHH culture medium for infection. The cells were then cultured for 24 hours in cell incubator. Then the cell culture supernatant was removed. The HBV-infected PHH were cultured with sandwich culture method with PHH culture medium containing 1% DMSO and 0.25 mg/mL matrix gel for 72 hours. The supernatant was then refreshed with PHH culture medium containing different concentrations of testing compounds for two times with 72-hour interval. At the end of treatment, the supernatant was collected for viral markers measurements, including HBsAg, HBeAg, HBV DNA and cytotoxicity. HBsAg and HBeAg were detected using alphalisa method using their specific antibodies. For HBV DNA detection, HBV DNA Quantitative Fluorescence Diagnostic Kit (Sansure Biotech Inc.) was used following the manufacture's protocol. Cytotoxicity was determined using Cell Counting Kit-8 (CCK8, Dojindo Molecular Technologies, Inc.).
(§2) The compounds of the present invention were tested for their capacity to inhibit HBsAg and HBeAg as described herein.

HBeAg = experiment: PHH natural infection assay, HBeAg (alphalisa); assay type: cell-based, HBV; settings: Hepatitis B virus, read-out: HBeAg IC50
Procedure: as §1, §2

[1] = PHH natural infection assay, cytotoxicity (Cell Counting Kit-8); assay type: cell-based; settings: human
Procedure: as §1

Structure (SMILES)	IC50 (HBsAg) [nM]	IC50 (HBeAg) [nM]	CC50 at 144 h [1] [nM]
O=C(Nc1ccc(-c2nc3cccc(F)c3o2)cc1)C1CCS(=O)(=O)CC1 [Example 18, N-[4-(7-fluoro-1,3-benzoxazol-2-yl)phenyl]-1,1-dioxo-thiane-4-carboxamide]	920	960	> 100000
O=C(Nc1ccc(-c2nc3ccc(Cl)cc3o2)cc1)C1CCS(=O)(=O)C1 (stereo not drawn) [Example 10, N-[4-(6-chloro-1,3-benzoxazol-2-yl)phenyl]-1,1-dioxo-thiolane-3-carboxamide]	6460	4380	> 100000
CC1(C(=O)Nc2ccc(-c3nc4cccc(F)c4o3)cc2)CCOC1 (stereo not drawn) [Example 21, N-[4-(7-fluoro-1,3-benzoxazol-2-yl)phenyl]-3-methyl-tetrahydrofuran-3-carboxamide]	720	850	> 100000
O=C(Nc1ccc(-c2nc3cc(F)ccc3o2)cc1)C1CCSCC1 [Example 7, N-[4-(5-fluoro-1,3-benzoxazol-2-yl)phenyl]tetrahydrothiopyran-4-carboxamide]	3860	5180	> 100000
CC(C)(C)C(=O)Nc1ccc(-c2nc3c(F)cccc3o2)cc1 [Example 53, N-[4-(4-fluoro-1,3-benzoxazol-2-yl)phenyl]-2,2-dimethyl-propanamide]	1430	1170	> 100000
Cc1cnc(C(=O)Nc2ccc(-c3nc4ccc(F)c(F)c4o3)cc2)o1 [Example 78, N-[4-(6,7-difluoro-1,3-benzoxazol-2-yl)phenyl]-5-methyl-oxazole-2-carboxamide]	810	1110	> 100000
CC(O)C(=O)Nc1ccc(-c2nc3c(F)cccc3o2)cc1 (stereo not drawn) [Example 52, N-[4-(4-fluoro-1,3-benzoxazol-2-yl)phenyl]-2-hydroxy-propanamide]	1720	1780	> 100000
CC(=O)OC1(C(=O)Nc2ccc(-c3nc4cccc(F)c4o3)cc2)CC1 [Example 36, [1-[[4-(7-fluoro-1,3-benzoxazol-2-yl)phenyl]carbamoyl]cyclopropyl] acetate]	2740	2610	> 100000
Cc1ncc(C(=O)Nc2ccc(-c3nc4c(F)cccc4o3)cc2)o1 [Example 45, N-[4-(4-fluoro-1,3-benzoxazol-2-yl)phenyl]-2-methyl-oxazole-5-carboxamide]	1360	1350	> 100000
O=C(Nc1ccc(-c2nc3c(F)cccc3o2)cc1)C1CCS(=O)(=O)C1 (stereo not drawn) [Example 50, N-[4-(4-fluoro-1,3-benzoxazol-2-yl)phenyl]-1,1-dioxo-thiolane-3-carboxamide]	1200	1510	> 100000
O=C(Nc1ccc(-c2nc3c(F)cccc3o2)cc1)C12CC(F)(C1)C2 [Example 48, 3-fluoro-N-[4-(4-fluoro-1,3-benzoxazol-2-yl)phenyl]bicyclo[1.1.1]pentane-1-carboxamide]	760	970	> 100000
Cc1ncc(C(=O)Nc2ccc(-c3nc4ccc(F)c(F)c4o3)cc2)o1 [Example 81, N-[4-(6,7-difluoro-1,3-benzoxazol-2-yl)phenyl]-2-methyl-oxazole-5-carboxamide]	1430	2060	> 100000
O=C(Nc1ccc(-c2nc3c(F)cccc3o2)cc1)C1CCOC1 (stereo not drawn) [Example 54, N-[4-(4-fluoro-1,3-benzoxazol-2-yl)phenyl]tetrahydrofuran-3-carboxamide]	2680	2830	> 100000
CC1(C(=O)Nc2ccc(-c3nc4cccnc4o3)cc2)COC1 [Example 65, 3-methyl-N-(4-oxazolo[5,4-b]pyridin-2-ylphenyl)oxetane-3-carboxamide]	2730	2200	> 100000
CCC1(C(=O)Nc2ccc(-c3nc4cccc(F)c4o3)cc2)COC1 [Example 39, 3-ethyl-N-[4-(7-fluoro-1,3-benzoxazol-2-yl)phenyl]oxetane-3-carboxamide]	6290	9010	> 100000
O=C(Nc1ccc(-c2nc3cccnc3o2)cc1)C1CCOC1 (stereo not drawn) [Example 67, N-(4-oxazolo[5,4-b]pyridin-2-ylphenyl)tetrahydrofuran-3-carboxamide]	3080	3300	> 100000
CC1(C(=O)Nc2ccc(-c3nc4c(F)cccc4o3)cc2)COC1 [Example 51, N-[4-(4-fluoro-1,3-benzoxazol-2-yl)phenyl]-3-methyl-oxetane-3-carboxamide]	1160	1230	> 100000
O=C(Nc1ccc(-c2nc3c(F)cccc3o2)cc1)c1ncco1 [Example 40, N-[4-(4-fluoro-1,3-benzoxazol-2-yl)phenyl]oxazole-2-carboxamide]	170	330	> 100000
O=C(Nc1ccc(-c2nc3cccc(F)c3o2)cc1)C12CC(F)(C1)C2 [Example 16, 3-fluoro-N-[4-(7-fluoro-1,3-benzoxazol-2-yl)phenyl]bicyclo[1.1.1]pentane-1-carboxamide]	480	440	> 100000
O=C(Nc1ccc(-c2nc3cccc(F)c3o2)cc1)C1CS(=O)(=O)C1 [Example 31, N-[4-(7-fluoro-1,3-benzoxazol-2-yl)phenyl]-1,1-dioxo-thietane-3-carboxamide]	1500	2290	> 100000
O=C(Nc1ccc(-c2nc3cc(Cl)ccc3o2)cc1)C1CCOC1 (stereo not drawn) [Example 75, N-[4-(5-chloro-1,3-benzoxazol-2-yl)phenyl]tetrahydrofuran-3-carboxamide]	1100	1340	> 100000
CC1(C(=O)Nc2ccc(-c3nc4cccc(F)c4o3)cc2)CC1 [Example 32, N-[4-(7-fluoro-1,3-benzoxazol-2-yl)phenyl]-1-methyl-cyclopropanecarboxamide]	1520	1160	> 100000
CC(C)(O)C(=O)Nc1ccc(-c2nc3c(F)cccc3o2)cc1 [Example 49, N-[4-(4-fluoro-1,3-benzoxazol-2-yl)phenyl]-2-hydroxy-2-methyl-propanamide]	620	530	> 100000
CC(C)(C)C(=O)Nc1ccc(-c2nc3cc(F)ccc3o2)cc1 [Example 6, N-[4-(5-fluoro-1,3-benzoxazol-2-yl)phenyl]-2,2-dimethyl-propanamide]	1610	5550	> 100000
O=C(Nc1ccc(-c2nc3cccc(Cl)c3o2)cc1)C1CCS(=O)(=O)C1 (stereo not drawn) [Example 85, N-[4-(7-chloro-1,3-benzoxazol-2-yl)phenyl]-1,1-dioxo-thiolane-3-carboxamide]	2680	1720	> 100000
O=C(Nc1ccc(-c2nc3cccc(F)c3o2)cc1)C1C2COCC21 (stereo not drawn) [Example 33, N-[4-(7-fluoro-1,3-benzoxazol-2-yl)phenyl]-3-oxabicyclo[3.1.0]hexane-6-carboxamide]	1580	1090	> 100000
O=C(Nc1ccc(-c2nc3cccc(F)c3o2)cc1)OC1CCOC1 (stereo not drawn) [Example 37, tetrahydrofuran-3-yl N-[4-(7-fluoro-1,3-benzoxazol-2-yl)phenyl]carbamate]	3430	4300	> 100000
O=C(Nc1ccc(-c2nc3cccc(F)c3o2)cc1)C1CCS(=O)(=O)C1 (stereo not drawn) [Example 17, N-[4-(7-fluoro-1,3-benzoxazol-2-yl)phenyl]-1,1-dioxo-thiolane-3-carboxamide]	540	630	> 100000
CC1(C(=O)Nc2ccc(-c3nc4c(F)cccc4o3)cc2)CC(=O)C1 [Example 56, N-[4-(4-fluoro-1,3-benzoxazol-2-yl)phenyl]-1-methyl-3-oxo-cyclobutanecarboxamide]	3390	4300	> 100000
CC(C)(O)C(=O)Nc1ccc(-c2nc3cccc(F)c3o2)cc1 [Example 13, N-[4-(7-fluoro-1,3-benzoxazol-2-yl)phenyl]-2-hydroxy-2-methyl-propanamide]	260	190	> 100000
